Test results taken from ChEMBL document CHEMBL4507316 (2021).

What was measured:
[1] = biological target: Histamine H3 receptor (Homo sapiens) (UniProt Q9Y5N1); settings: Compound concentration 10.0 uM
[2] = biological target: Receptor-interacting serine/threonine-protein kinase 2 (Homo sapiens) (UniProt O43353); test: RIPK2 ProQinase selectivity panel; settings: Compound concentration 1.0 uM
[3] = biological target: Eukaryotic translation initiation factor 2-alpha kinase 3 (Homo sapiens) (UniProt Q9NZJ5); test: EIF2AK3 ProQinase selectivity panel; settings: Compound concentration 1.0 uM
[4] = biological target: Ribosomal protein S6 kinase alpha-1 (Homo sapiens) (UniProt Q15418); test: RPS6KA1 ProQinase selectivity panel; settings: Compound concentration 1.0 uM
[5] = system: Tyrosine-protein kinase ABL1 (Homo sapiens), P00519 [M351T]; test: ABL1 M351T ProQinase selectivity panel; settings: Compound concentration 1.0 uM
[6] = biological target: Serine/threonine-protein kinase haspin (Homo sapiens) (UniProt Q8TF76); test: GSG2 ProQinase selectivity panel; settings: Compound concentration 1.0 uM
[7] = biological target: Serine/threonine-protein kinase N2 (Homo sapiens) (UniProt Q16513); test: PRK2 ProQinase selectivity panel; settings: Compound concentration 1.0 uM
[8] = biological target: Mitogen-activated protein kinase kinase kinase 11 (Homo sapiens) (UniProt Q16584); test: MAP3K11 ProQinase selectivity panel; settings: Compound concentration 1.0 uM
[9] = biological target: TGF-beta receptor type-2 (Homo sapiens) (UniProt P37173); test: TGFB-R2 ProQinase selectivity panel; settings: Compound concentration 1.0 uM
[10] = biological target: Protein kinase C iota type (Homo sapiens) (UniProt P41743); test: PKC-iota ProQinase selectivity panel; settings: Compound concentration 1.0 uM
Chain of Protein kinase C iota type (Homo sapiens) (P41743 whole entry): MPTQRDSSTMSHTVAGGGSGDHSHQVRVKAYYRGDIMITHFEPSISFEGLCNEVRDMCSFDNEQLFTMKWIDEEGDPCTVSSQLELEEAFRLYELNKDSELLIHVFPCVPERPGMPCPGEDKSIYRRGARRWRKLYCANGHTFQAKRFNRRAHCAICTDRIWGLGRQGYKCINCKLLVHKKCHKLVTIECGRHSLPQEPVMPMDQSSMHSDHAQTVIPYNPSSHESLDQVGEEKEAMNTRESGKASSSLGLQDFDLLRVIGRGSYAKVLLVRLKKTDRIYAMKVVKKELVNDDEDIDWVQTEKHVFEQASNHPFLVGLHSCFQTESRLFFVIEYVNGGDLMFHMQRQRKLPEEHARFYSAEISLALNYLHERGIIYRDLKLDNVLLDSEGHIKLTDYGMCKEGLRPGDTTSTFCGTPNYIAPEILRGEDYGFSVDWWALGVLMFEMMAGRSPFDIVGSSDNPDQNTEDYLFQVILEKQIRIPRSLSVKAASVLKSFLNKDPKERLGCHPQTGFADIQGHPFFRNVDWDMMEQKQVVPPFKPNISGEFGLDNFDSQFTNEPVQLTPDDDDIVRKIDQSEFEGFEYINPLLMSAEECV

[11] = system: Platelet-derived growth factor receptor alpha (Homo sapiens), P16234 [T674I]; test: PDGFR-alpha T674I ProQinase selectivity panel; settings: Compound concentration 1.0 uM
[12] = biological target: Dual specificity protein kinase CLK3 (Homo sapiens) (UniProt P49761); test: CLK3 ProQinase selectivity panel; settings: Compound concentration 1.0 uM
[13] = biological target: 5-hydroxytryptamine receptor 3A (Homo sapiens) (UniProt P46098); settings: Compound concentration 10.0 uM
[14] = biological target: Ephrin type-B receptor 3 (Homo sapiens) (UniProt P54753); test: EPHB3 ProQinase selectivity panel; settings: Compound concentration 1.0 uM
[15] = system: Fibroblast growth factor receptor 1 (Homo sapiens), P11362 [V561M]; test: FGF-R1 V561M ProQinase selectivity panel; settings: Compound concentration 1.0 uM
[16] = biological target: Dual specificity protein kinase CLK4 (Homo sapiens) (UniProt Q9HAZ1); test: CLK4 ProQinase selectivity panel; settings: Compound concentration 1.0 uM
[17] = biological target: CDK8/Cyclin C (Homo sapiens) (UniProt P49336+P24863); test: CDK8/CycC ProQinase selectivity panel; assay type: protein-complex assay; settings: Compound concentration 1.0 uM
[18] = biological target: Ephrin type-A receptor 5 (Homo sapiens) (UniProt P54756); test: EPHA5 ProQinase selectivity panel; settings: Compound concentration 1.0 uM
[19] = biological target: Insulin receptor (Homo sapiens) (UniProt P06213); test: INS-R ProQinase selectivity panel; settings: Compound concentration 1.0 uM
Chain of Insulin receptor (Homo sapiens) (P06213 28-758 limits assumed): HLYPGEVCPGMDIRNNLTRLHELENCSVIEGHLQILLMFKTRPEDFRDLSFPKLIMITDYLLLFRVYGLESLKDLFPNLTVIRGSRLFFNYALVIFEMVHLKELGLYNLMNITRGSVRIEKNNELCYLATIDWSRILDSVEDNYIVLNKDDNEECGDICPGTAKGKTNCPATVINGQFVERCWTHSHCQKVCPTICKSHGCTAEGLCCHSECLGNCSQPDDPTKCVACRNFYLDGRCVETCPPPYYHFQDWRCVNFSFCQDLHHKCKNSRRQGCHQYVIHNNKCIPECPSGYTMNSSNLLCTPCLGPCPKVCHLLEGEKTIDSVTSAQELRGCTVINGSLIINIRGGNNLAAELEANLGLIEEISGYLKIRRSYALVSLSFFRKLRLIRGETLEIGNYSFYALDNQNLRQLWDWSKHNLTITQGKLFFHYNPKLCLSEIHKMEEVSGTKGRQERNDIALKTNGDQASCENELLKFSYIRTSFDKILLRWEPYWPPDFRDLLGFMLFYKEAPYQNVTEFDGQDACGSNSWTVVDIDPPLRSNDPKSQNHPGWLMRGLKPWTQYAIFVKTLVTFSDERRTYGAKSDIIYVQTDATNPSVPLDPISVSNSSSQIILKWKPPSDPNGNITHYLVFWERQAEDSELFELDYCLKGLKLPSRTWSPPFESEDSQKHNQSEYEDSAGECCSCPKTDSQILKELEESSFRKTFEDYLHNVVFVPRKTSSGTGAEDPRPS
Chain of Insulin receptor (Homo sapiens) (P06213 763-1382 limits assumed): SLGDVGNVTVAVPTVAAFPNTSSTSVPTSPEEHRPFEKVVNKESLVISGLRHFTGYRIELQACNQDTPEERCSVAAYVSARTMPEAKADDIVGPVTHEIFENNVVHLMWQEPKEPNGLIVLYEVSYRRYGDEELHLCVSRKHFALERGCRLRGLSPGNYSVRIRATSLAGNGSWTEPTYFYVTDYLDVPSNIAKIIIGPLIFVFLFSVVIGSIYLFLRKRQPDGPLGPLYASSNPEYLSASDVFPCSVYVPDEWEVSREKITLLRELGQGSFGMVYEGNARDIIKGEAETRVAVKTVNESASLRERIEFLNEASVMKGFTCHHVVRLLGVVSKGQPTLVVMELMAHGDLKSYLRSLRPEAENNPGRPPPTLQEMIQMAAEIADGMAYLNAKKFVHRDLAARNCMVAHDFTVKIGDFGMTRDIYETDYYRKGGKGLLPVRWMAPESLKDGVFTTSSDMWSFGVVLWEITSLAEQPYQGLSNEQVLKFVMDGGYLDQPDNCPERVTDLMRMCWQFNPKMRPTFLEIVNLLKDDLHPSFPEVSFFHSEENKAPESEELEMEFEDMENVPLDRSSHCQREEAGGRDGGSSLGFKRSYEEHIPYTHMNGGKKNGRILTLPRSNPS

[20] = biological target: Tyrosine-protein kinase FRK (Homo sapiens) (UniProt P42685); test: FRK ProQinase selectivity panel; settings: Compound concentration 1.0 uM
[21] = biological target: Non-receptor tyrosine-protein kinase TYK2 (Homo sapiens) (UniProt P29597); test: TYK2 ProQinase selectivity panel; settings: Compound concentration 1.0 uM
[22] = biological target: Serine/threonine-protein kinase pim-1 (Homo sapiens) (UniProt P11309); test: PIM1 ProQinase selectivity panel; settings: Compound concentration 1.0 uM
Chain of Serine/threonine-protein kinase pim-1 (Homo sapiens) (P11309 whole entry, looked up): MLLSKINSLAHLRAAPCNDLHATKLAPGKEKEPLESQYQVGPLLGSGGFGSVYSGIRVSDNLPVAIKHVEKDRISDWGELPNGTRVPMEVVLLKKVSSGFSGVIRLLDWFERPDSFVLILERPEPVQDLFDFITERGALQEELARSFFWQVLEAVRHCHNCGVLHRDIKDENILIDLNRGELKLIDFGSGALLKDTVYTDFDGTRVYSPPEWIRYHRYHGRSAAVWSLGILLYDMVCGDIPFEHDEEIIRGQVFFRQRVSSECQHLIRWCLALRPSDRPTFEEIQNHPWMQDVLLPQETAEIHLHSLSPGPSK

[23] = biological target: Dual specificity mitogen-activated protein kinase kinase 2 (Homo sapiens) (UniProt P36507); test: MEK2 ProQinase selectivity panel; settings: Compound concentration 1.0 uM
[24] = system: Epidermal growth factor receptor (Homo sapiens), P00533 [UNDEFINED MUTATION]; test: EGF-R d752-759 ProQinase selectivity panel; settings: Compound concentration 1.0 uM
[25] = biological target: Tyrosine-protein kinase JAK1 (Homo sapiens) (UniProt P23458); test: JAK1 ProQinase selectivity panel; settings: Compound concentration 1.0 uM
[26] = biological target: Aurora kinase C (Homo sapiens) (UniProt Q9UQB9); test: Aurora-C ProQinase selectivity panel; settings: Compound concentration 1.0 uM
Chain of Aurora kinase C (Homo sapiens) (Q9UQB9 whole entry): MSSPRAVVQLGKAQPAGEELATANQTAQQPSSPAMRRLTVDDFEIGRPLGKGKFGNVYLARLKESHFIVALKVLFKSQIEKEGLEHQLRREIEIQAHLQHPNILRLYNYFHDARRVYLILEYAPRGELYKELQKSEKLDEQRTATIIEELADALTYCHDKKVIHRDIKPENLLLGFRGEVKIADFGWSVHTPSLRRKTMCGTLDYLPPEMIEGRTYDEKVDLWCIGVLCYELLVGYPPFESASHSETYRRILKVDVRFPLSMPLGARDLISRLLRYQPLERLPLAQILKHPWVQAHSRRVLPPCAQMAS

[27] = biological target: 5-hydroxytryptamine receptor 1A (Homo sapiens) (UniProt P08908); settings: Compound concentration 10.0 uM
[28] = system: Fibroblast growth factor receptor 3 (Homo sapiens), P22607 [K650E]; test: FGF-R3 K650E ProQinase selectivity panel; settings: Compound concentration 1.0 uM
[29] = biological target: 5-hydroxytryptamine receptor 1D (Homo sapiens) (UniProt P28221); settings: Compound concentration 10.0 uM
[30] = biological target: Platelet-derived growth factor receptor alpha (Homo sapiens) (UniProt P16234); test: PDGFR-alpha wt ProQinase selectivity panel; settings: Compound concentration 1.0 uM
[31] = biological target: Mitogen-activated protein kinase kinase kinase 3 (Homo sapiens) (UniProt Q99759); test: MEKK3 ProQinase selectivity panel; settings: Compound concentration 1.0 uM
[32] = biological target: Mu-type opioid receptor (Homo sapiens) (UniProt P35372); settings: Compound concentration 10.0 uM
Chain of Mu-type opioid receptor (Homo sapiens) (P35372 whole entry): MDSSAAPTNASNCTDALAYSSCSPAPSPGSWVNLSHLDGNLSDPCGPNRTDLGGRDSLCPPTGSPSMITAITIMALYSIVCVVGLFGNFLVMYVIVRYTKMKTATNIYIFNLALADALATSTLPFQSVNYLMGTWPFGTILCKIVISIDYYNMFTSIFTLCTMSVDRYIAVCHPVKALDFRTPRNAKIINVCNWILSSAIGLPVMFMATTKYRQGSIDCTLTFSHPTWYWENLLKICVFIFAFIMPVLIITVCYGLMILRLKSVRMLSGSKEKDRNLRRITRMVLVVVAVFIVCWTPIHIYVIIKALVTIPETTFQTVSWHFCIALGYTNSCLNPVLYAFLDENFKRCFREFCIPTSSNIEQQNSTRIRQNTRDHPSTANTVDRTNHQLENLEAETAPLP

[33] = system: Tyrosine-protein kinase ABL1 (Homo sapiens), P00519 [Q252H]; test: ABL1 Q252H ProQinase selectivity panel; settings: Compound concentration 1.0 uM
[34] = biological target: Dual specificity tyrosine-phosphorylation-regulated kinase 4 (Homo sapiens) (UniProt Q9NR20); test: DYRK4 ProQinase selectivity panel; settings: Compound concentration 1.0 uM
[35] = system: Receptor-type tyrosine-protein kinase FLT3 (Homo sapiens), P36888 [UNDEFINED MUTATION]; test: FLT3 ITD ProQinase selectivity panel; settings: Compound concentration 1.0 uM
[36] = biological target: Tyrosine-protein kinase ABL2 (Homo sapiens) (UniProt P42684); test: ABL2 ProQinase selectivity panel; settings: Compound concentration 1.0 uM
[37] = biological target: Muscarinic acetylcholine receptor M1 (Homo sapiens) (UniProt P11229); settings: Compound concentration 10.0 uM
[38] = biological target: Fibroblast growth factor receptor 4 (Homo sapiens) (UniProt P22455); test: FGF-R4 ProQinase selectivity panel; settings: Compound concentration 1.0 uM
[39] = biological target: Sodium-dependent dopamine transporter (Homo sapiens, UniProt Q01959); test: GPCRScan assay: inhibition of DAT; parameters: radioligand conc. used [nm] 3.6 – 16.0, parental cells stable HEK
Chain of Sodium-dependent dopamine transporter (Q01959 whole entry): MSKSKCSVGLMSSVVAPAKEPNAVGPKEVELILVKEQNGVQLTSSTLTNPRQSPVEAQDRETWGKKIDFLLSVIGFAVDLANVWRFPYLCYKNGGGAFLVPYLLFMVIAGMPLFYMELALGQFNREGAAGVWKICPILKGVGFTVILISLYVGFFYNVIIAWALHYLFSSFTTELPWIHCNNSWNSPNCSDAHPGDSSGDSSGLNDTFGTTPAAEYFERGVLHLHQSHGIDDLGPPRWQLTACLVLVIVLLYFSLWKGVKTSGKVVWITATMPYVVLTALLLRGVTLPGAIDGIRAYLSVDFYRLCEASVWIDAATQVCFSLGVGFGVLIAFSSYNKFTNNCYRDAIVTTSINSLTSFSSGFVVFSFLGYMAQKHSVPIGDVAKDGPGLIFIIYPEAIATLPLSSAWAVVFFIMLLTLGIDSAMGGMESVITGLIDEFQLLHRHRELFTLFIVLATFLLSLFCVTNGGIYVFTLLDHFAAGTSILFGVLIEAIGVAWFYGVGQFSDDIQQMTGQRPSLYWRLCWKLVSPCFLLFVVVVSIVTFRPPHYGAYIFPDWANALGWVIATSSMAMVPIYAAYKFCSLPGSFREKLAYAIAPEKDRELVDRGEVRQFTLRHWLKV

[40] = system: Epidermal growth factor receptor (Homo sapiens), P00533 [G719S]; test: EGF-R G719S ProQinase selectivity panel; settings: Compound concentration 1.0 uM
[41] = system: Platelet-derived growth factor receptor alpha (Homo sapiens), P16234 [V561D]; test: PDGFR-alpha V561D ProQinase selectivity panel; settings: Compound concentration 1.0 uM
[42] = biological target: SRSF protein kinase 1 (Homo sapiens) (UniProt Q96SB4); test: SRPK1 ProQinase selectivity panel; settings: Compound concentration 1.0 uM
[43] = biological target: Casein kinase I isoform epsilon (Homo sapiens) (UniProt P49674); test: CK1-epsilon ProQinase selectivity panel; settings: Compound concentration 1.0 uM
[44] = biological target: Homeodomain-interacting protein kinase 2 (Homo sapiens) (UniProt Q9H2X6); test: HIPK2 ProQinase selectivity panel; settings: Compound concentration 1.0 uM
[45] = biological target: 5-hydroxytryptamine receptor 6 (Homo sapiens) (UniProt P50406); settings: Compound concentration 10.0 uM
[46] = biological target: Tyrosine-protein kinase Fes/Fps (Homo sapiens) (UniProt P07332); test: FES ProQinase selectivity panel; settings: Compound concentration 1.0 uM
Chain of Tyrosine-protein kinase Fes/Fps (Homo sapiens) (P07332 whole entry): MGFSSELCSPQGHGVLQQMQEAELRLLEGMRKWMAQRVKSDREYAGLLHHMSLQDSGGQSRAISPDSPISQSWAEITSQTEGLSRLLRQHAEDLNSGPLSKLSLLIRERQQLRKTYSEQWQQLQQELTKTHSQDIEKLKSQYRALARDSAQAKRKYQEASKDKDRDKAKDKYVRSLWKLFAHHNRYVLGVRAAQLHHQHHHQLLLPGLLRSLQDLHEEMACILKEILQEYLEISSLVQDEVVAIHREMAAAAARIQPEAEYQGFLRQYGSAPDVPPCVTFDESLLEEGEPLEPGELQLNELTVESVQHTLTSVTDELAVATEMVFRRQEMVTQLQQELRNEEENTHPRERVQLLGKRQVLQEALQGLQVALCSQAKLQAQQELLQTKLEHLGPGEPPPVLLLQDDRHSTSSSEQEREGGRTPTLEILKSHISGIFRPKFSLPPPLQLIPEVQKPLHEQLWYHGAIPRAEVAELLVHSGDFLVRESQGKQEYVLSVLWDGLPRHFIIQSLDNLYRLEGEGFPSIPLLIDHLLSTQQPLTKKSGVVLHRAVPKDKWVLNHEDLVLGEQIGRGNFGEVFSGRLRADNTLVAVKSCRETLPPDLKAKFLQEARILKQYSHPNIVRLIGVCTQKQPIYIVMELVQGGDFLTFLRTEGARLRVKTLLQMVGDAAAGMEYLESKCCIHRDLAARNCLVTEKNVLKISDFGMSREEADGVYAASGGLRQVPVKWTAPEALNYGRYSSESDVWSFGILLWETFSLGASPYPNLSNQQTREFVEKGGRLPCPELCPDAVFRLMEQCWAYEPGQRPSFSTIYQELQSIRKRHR

[47] = biological target: Beta-2 adrenergic receptor (Homo sapiens) (UniProt P07550); settings: Compound concentration 10.0 uM
[48] = biological target: Beta-adrenergic receptor kinase 1 (Homo sapiens) (UniProt P25098); test: GRK2 ProQinase selectivity panel; settings: Compound concentration 1.0 uM

Chain of Receptor-interacting serine/threonine-protein kinase 2 (Homo sapiens) (O43353 whole entry): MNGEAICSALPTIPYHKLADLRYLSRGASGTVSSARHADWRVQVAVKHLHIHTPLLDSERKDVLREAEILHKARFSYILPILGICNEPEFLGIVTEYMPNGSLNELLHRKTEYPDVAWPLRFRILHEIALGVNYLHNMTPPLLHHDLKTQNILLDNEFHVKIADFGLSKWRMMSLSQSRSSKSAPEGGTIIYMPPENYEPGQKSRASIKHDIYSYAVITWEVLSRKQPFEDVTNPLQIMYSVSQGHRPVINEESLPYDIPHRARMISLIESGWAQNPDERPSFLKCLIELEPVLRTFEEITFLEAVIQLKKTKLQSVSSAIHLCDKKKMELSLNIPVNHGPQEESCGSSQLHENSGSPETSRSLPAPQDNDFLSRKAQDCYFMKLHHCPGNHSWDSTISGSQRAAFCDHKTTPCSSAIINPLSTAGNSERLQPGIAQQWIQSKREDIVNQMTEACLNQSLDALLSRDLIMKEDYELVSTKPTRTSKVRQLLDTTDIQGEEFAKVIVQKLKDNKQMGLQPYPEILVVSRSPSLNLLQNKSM

O=C1c2ccc(Nc3ccc(F)cc3F)cc2CCc2ccc(OC[C@H](O)CO)cc21 [Skepinone-L]
inhibition [1]: 10.9%
% Residual activity with Skepinone-L [2]: 77%
% Residual activity with Skepinone-L [3]: 95%
% Residual activity with Skepinone-L [4]: 89%
% Residual activity with Skepinone-L [5]: 102%
% Residual activity with Skepinone-L [6]: 82%
% Residual activity with Skepinone-L [7]: 95%
% Residual activity with Skepinone-L [8]: 114%
% Residual activity with Skepinone-L [9]: 77%
% Residual activity with Skepinone-L [10]: 91%
% Residual activity with Skepinone-L [11]: 97%
% Residual activity with Skepinone-L [12]: 88%
inhibition [13]: 6.53%
% Residual activity with Skepinone-L [14]: 108%
% Residual activity with Skepinone-L [15]: 89%
% Residual activity with Skepinone-L [16]: 100%
% Residual activity with Skepinone-L [17]: 105%
% Residual activity with Skepinone-L [18]: 132%
% Residual activity with Skepinone-L [19]: 101%
% Residual activity with Skepinone-L [20]: 111%
% Residual activity with Skepinone-L [21]: 96%
% Residual activity with Skepinone-L [22]: 105%
% Residual activity with Skepinone-L [23]: 99%
% Residual activity with Skepinone-L [24]: 83%
% Residual activity with Skepinone-L [25]: 93%
% Residual activity with Skepinone-L [26]: 85%
inhibition [27]: 40.5%
% Residual activity with Skepinone-L [28]: 99%
inhibition [29]: 23.8%
% Residual activity with Skepinone-L [30]: 91%
% Residual activity with Skepinone-L [31]: 96%
inhibition [32]: 22.5%
% Residual activity with Skepinone-L [33]: 95%
% Residual activity with Skepinone-L [34]: 93%
% Residual activity with Skepinone-L [35]: 101%
% Residual activity with Skepinone-L [36]: 99%
inhibition [37]: 45.5%
% Residual activity with Skepinone-L [38]: 103%
Ki [39]: > 10 µM
pKi [39]: < 5
% Residual activity with Skepinone-L [40]: 96%
% Residual activity with Skepinone-L [41]: 91%
% Residual activity with Skepinone-L [42]: 100%
% Residual activity with Skepinone-L [43]: 86%
% Residual activity with Skepinone-L [44]: 104%
inhibition [45]: 14.8%
% Residual activity with Skepinone-L [46]: 121%
inhibition [47]: 2.93%
% Residual activity with Skepinone-L [48]: 83%
